In US5208344A, “Naphthalenepropionic acid derivatives as anti-inflammatory/antiallergic agents” (American Home Products Corporation, priority 1991, dated 1993):
Structures can show the parent of a compound that is named as a salt.

How the values were obtained:
[1] = target: T1, 5-lipoxygenase (Homo sapiens, UniProt P09917); experiment: inhibition of 5-lipoxygenase in human whole blood (LTB4); assay type: cell-based; details: human whole blood
T1 construct: Blood is obtained in 50-100 ml quantities from male donors; endogenous in cells; host or cells: human whole blood (leukocytes) from male donors
T1 sequence (P09917 1-674): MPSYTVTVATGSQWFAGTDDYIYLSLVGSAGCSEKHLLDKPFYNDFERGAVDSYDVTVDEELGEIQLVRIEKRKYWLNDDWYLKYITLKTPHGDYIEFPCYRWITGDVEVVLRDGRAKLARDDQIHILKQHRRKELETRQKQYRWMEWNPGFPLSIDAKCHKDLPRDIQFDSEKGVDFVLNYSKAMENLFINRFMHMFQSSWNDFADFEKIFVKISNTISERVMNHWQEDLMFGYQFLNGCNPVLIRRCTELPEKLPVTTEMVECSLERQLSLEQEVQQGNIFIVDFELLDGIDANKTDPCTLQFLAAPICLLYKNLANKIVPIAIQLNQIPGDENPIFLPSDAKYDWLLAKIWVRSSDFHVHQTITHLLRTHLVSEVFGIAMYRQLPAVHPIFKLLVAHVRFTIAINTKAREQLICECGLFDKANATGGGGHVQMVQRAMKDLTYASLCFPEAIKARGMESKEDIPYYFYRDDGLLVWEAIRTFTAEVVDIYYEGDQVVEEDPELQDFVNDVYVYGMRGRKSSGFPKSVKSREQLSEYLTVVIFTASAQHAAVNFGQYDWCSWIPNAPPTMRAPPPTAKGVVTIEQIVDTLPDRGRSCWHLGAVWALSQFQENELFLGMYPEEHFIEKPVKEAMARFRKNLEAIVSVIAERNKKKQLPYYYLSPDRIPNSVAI
Summary of the method: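 Donor whole blood preincubated with compound (final 0.1% DMSO) 10 min at 37 °C, then stimulated with 30 μM calcium ionophore A23187 for 20 min at 37 °C; stopped on ice with 10 mM EGTA. Plasma LTB4 measured by RIA or ELISA, expressed per 10^6 neutrophils; IC50 by regression analysis.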

[2] = system: cyclooxygenase; experiment: inhibition of synthesis of cyclooxygenase products TxB2 and PGE2 (rat polymorphonuclear leukocytes); assay type: cell-based; details: 10 μM; rat PMN; negative = potentiation of PGE2 synthesis
Summary of the method: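 Glycogen-elicited peritoneal PMN from female Wistar rats, 2×10^7 cells/ml in HBSS with Ca^++, Mg^++ and 10 mM L-cysteine, preincubated with compound 10 min at 37° C. Stimulated 10 min with A23187 (10 μM) plus 0.5 μM [14C] arachidonic acid; TxB2 and PGE2 quantified by TLC, autoradiography and scintillation counting.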

## C[C@H](C(=O)O)c1ccc2cc(OCc3ccc4ccccc4n3)ccc2c1 [Example 17, S-(α)-α-Methyl-6-(2-quinolinylmethoxy)-2-naphthaleneacetic acid, tromethanime salt]
[1]; 25 μM
  inhibition at 25 µM: 19%
[2]
  % Inhibition of CO (as PGE2): 20%

## C[C@H](C(=O)N(C)O)c1ccc2cc(OCc3ccc4ccccc4n3)ccc2c1 [Example 24, (S)-N-Hydroxy-α-N-dimethyl-6-(2-quinolinylmethoxy)-2-naphthaleneacetamide]
[1]; 5 μM, read-out: % Inhibition of LTB4
  inhibition at 5 µM: 44%
[2]
  % Inhibition of CO (as PGE2): 13%
